Experimental data: patent US20260132165A1, “MODIFIED NUCLEOSIDE ANALOGUE AND USE THEREOF, AND NUCLEOSIDE ANALOGUE-CONTAINING DOUBLE-STRANDED OLIGONUCLEOTIDE AND USE THEREOF” (RIGERNA THERAPEUTICS (BEIJING) CO., LTD., priority 2023, published 2026)
“And” between values parts separate entries of the source, which are not always exact repeats. Equal values may be shown once.

Key:
[1] = test system: target gene Superoxide Dismutase 1 (SOD1); assay: Test Example 1: inhibitory activity of NM031 conjugated siRNA on SOD1 by lateral ventricular administration to mice (real-time PCR, ΔΔCt); type: in vivo, C57BL/6j mice; details: lateral ventricle, 200 μg per mouse, D5
Excerpt: In the context of the present disclosure, unless otherwise stated, Real-time PCR detection data in in vivo activity experiments involved in the present disclosure are all used for relative quantitative calculation of gene mRNA of interest in various test groups by a ΔΔCt method, and a calculation method is summarized as follows:
Taking the control group as reference, expression level of the gene mRNA of interest in the test group is normalized, and remaining expression level of the gene mRNA of interest in the […] is defined as 100%.
6-8 Week-old C57BL/6j mice were randomly grouped by body weight, 5 per group, 2 groups in total, i.e., PBS group (dosed with siRNA-free PBS solution) and RZ899008 group (dosed with siRNA RZ899008 (the sense strand with the NM031 conjugation at Position 4) prepared in Example 1). Mice in each group were anaesthetized by intraperitoneal injection of 5% chloral hydrate, and were immobilized with the cerebral stereotaxic apparatus after being anaesthetized. Head skin was cut, positioning coordinates of right lateral ventricle were found with the stereotaxic apparatus and position was marked on surface of skull, wherein the positioning coordinates of the lateral ventricle were as follows: in coordinate axes with Bregma point as an origin, ML (mediolateral, left and right of middle raphe, i.e., X-axis) value=1.2 mm, and AP (anteroposterior, bregma anterior and posterior, i.e., Y-axis) value=−0.58 mm, and DV (dorsoventral, down skull (cerebral dura mater) plane, i.e., Z-axis) value=2.2 mm. A dental electric drill was used to drill in the skull above a position of interest, and then sucked drug was injected into the lateral ventricle by a micro-dosing pump. An administration dose to each mouse in the RZ899008 group was 200 μg (dose being measured as siRNA, concentration of siRNA being 20 μg/μL, PBS buffer as a solvent), and a total injection volume was […]. PBS group was administered with the same volume of siRNA-free PBS solution. […] The day of administration was recorded as first day (D1), and the mice were sacrificed on the fifth day (D5). […]

[2] = test system: SOD1; assay: Test Example 2: inhibitory activity of NM031 conjugated siRNA on SOD1 by intrathecal administration to mice; type: in vivo, C57BL/6j mice; details: D9
Description: 6-8 Week-old C57BL/6j mice were randomly grouped into 4 groups by body weight. PBS group was dosed with siRNA-free PBS solution, RX899001 group was dosed with siRNA compound RX899001 without vector conjugation, RZ899001 group was dosed with siRNA RZ899001 (the sense strand with the Uhd conjugation at Position 4) prepared in Example 1, and RZ899008 was dosed with siRNA RZ899008 (the sense strand with the NM031 conjugation at Position 4) prepared in Example 1. Mices in each group were anesthetized with isoflurane. After anesthetization, lumbar region thereof was sprayed wet with 75% disinfecting alcohol. 10 μL (concentration […]) of siRNA drug containing PBS solvent was sucked with an insulin injection needle, the mouse lumbar region was pinched with the left-hand index finger and thumb, patella crest was propped against, and needle was held by the right hand. The needle was bent by forceps in advance, wherein the needle was first bent in the middle by 80° to 90°, then a front half part of the needle was bent in half, and the whole needle was bent in an are shape of about 60° to 90°. Mouse abdominal region was padded with an article with a thickness of about 2 cm. The needle was inserted from a joint of lumbar spines L5 and L6 of mice, and when inserting the needle, the hand was slightly inclined forwards to insert the needle. […] After completion of the injection, the needle was slowly withdrawn at uniform velocity. The administration dose to each mouse in RX899001 group, RZ899001 group and RZ899008 group was 800 μg, a total volume injected was 10 μL, and the PBS group was administered with the same volume of siRNA-free PBS solution. After the animals woke up, the animals were returned back to the animal feeding room and further fed. The day of administration was recorded as first day (D1), and the mice were sacrificed on ninth day (D9). Lumbar spine, thoracic spine and cerebellum were respectively taken and stored in the RNAlater.
RNA extraction: an appropriate amount of lumbar spine, thoracic spine and cerebellum samples were respectively taken out from the RNAlater, and smashed for 60 s in Tissuelyser type II full-automatic tissue homogenizer, and total RNAs of various tissue samples were extracted using the full-automatic nucleic acid extraction instrument and the nucleic acid extraction kit from Zhejiang Hanwei Science and Technology Co. Ltd. according to methods described in instructions. Reverse transcription reaction: 1 μg of the extracted total RNAs of various tissue samples were respectively taken, and configured into 20 μL of reverse transcription system according to a method described in kit instructions by using a reverse transcription kit (Reverse Transcription System, A3500) from Promega Corporation and selecting Oligo (dT)15 reverse transcription primers, and the reverse transcription reaction was completed. After the reaction was ended, 80 μL of RNase-Free water was added into the reverse transcription system to provide cDNA solution for Real-time PCR detection.
Real-time PCR detection: 20 μL of Real-time PCR reaction system per PCR detection well was configured according to a method described in kit instructions using SYBR™ Select Master Mix (Catalog number: 4472908) reagent from ABI company. Each detection system contained 5 μL of cDNA template obtained from the above reverse transcription reaction, 10 μL of SYBR™ Select Master Mix, 0.5 μL of 10 μM upstream primers, 0.5 μL of 10 μM downstream primers (see TABLE 5 for primer information), and 4 μL of RNase-Free H2O. The configured reaction system was subjected to Real-time PCR amplification on ABI StepOnePlus PCR instrument by a three-step method, wherein an amplification procedure was pre-denaturation at 95° C. for 10 min, then denaturation at 95° C. for 30 s, annealing at 60° C. for 30 s, and extension at 72° C. for 30 s; and processes of denaturation, annealing, and extension were repeated for 40 cycles. […]

RZ899008: siRNA, the sense strand with the NM031 conjugation at Position 4; SEQ ID NO: 3 / 2 (sense UUUNAAUCCUCACUCUAAA; antisense UUUAGAGUGAGGAUUAAAAUG; NM031 conjugate at sense position 4; modified_base 1..2 OTHER; 2'-methoxy and 5'-thiophosphate modified nucleotides; modified_base 3 OTHER; 2'-methoxy modified nucleotide; modified_base 4 OTHER; n is the synthetic nucleotide analog NM031 as described in the disclosure (e.g., NM031-1 ((1-[(2R,3R,4S,5R)-5-{[bis(4-methoxyphenyl)(phenyl)methoxy]methyl}-3,4-dihydroxyoxolan-2-yl]-3H-pyrimidin-2,4-dione)).; modified_base 5..6 OTHER; 2'-meth; modified_base 1 OTHER; 2'-methoxy and 5'-thiophosphate modified nucleotide; modified_base 2 OTHER; 2'-fluoro and 5'-thiophosphate modified nucleotide; …)
Hippocampus Mean value of inhibition rate % ([1]; administration-side hippocampus): 82.94%
Parietal cortex Mean value of inhibition rate % ([1]; administration-side parietal cortex): 73.57%
Cerebellum Mean value of inhibition rate % ([1]; cerebellum): 40.08%
Cerebellum Mean value of inhibition rate % ([2]; cerebellum, intrathecal, 800 μg per mouse): 67.72%
activity compared with control molecule RZ899001 and molecule RX899001 without vector conjugation ([2]; lumbar spine, thoracic spine and cerebellum, intrathecal 800 μg per mouse): superior
Lumbar spine Mean value of inhibition rate % ([2]; lumbar spine, intrathecal, 800 μg per mouse): 80.09% and 78.99%
Thoracic spine Mean value of inhibition rate % ([2]; thoracic spine, intrathecal, 800 μg per mouse): 78.99% and 80.09%
